# Measurements from article PMC11793105, “A kalihinol analog disrupts apicoplast function and vesicular trafficking in P. falciparum malaria” (Science (New York, N.Y.), 2024).
# Legend:
# [1] = Time course stability to conditions of varying pH (mass spectrometric assay); type: physicochemical; details: aqueous buffers pH 2-7, room temperature, 10 min to 16 h; stable down to pH 4
# Protocol: removed under reduced pressure in a rotary evaporator then under high vacuum to afford bis-formamide GB-209-3 as a colorless oil that solidified upon standing (5.2 mg, 96% yield).
# Note: GB-209-3 was observed as four different amide rotamer ic species (estimated ratio = 54:35:7:4) under ambient conditions, complicating NMR spectroscopic analysis:
# Isonitriles are known to be somewhat reactive functional groups. While previous studies […]
# stability,3 we also wanted to account for the potential stomach-acid-catalyzed hydrolysis of the isonitriles in the course of in vivo experiments. We developed a mass spectrometric assay to understand the acid stability of the isonitriles with respect to hydrolysis to the corresponding formamides. […]
# Supporting Table 1. a. Ionization (ES+) and b. inlet parameters for quantification of MED6-189 and formamides GB-209-2, and GB-209-3. […]
# GB-209-2 and GB-209-3 were determined for each aliquot and plotted over time for respective pH values in the figure below describing the time course stability of MED6 -189 to conditions of varying pH over time via quantitative analysis of formamide products GB -209-2 and GB-209-3.
# Time course stability of MED6 -189 to conditions of varying pH over time via quantitative analysis of formamide products GB -209-2 and GB-209-3. […]
# [2] = tested on: P. falciparum; details: several P. falciparum drug-sensitive and drug-resistant strains; earlier study; read-out: IC50 (median inhibitory concentration); cited from earlier work
# [3] = tested on: P. cynomolgi M/B strain parasites; experiment: P. cynomolgi M/B strain drug assay (Hoechst flow cytometry); type: cell-based; details: Plasmodium cynomolgi, harvested 60 hours after initial dosing
# Description: Detailed information on materials and methods is available in the supplementary materials. […] P. knowlesi assays were quantitatively measured by flow cytometry using SYBR Green I and Mitrotracker Deep Red, as previously described ([84], [85]), on a Beckman Coulter CytoFLEX. Nonhuman primate infections were required to generate P. cynomolgi M/B strain parasites for in vitro testing ([82], [86]). […]
# reduction in weight, aggressive or unexpected animal behavior, animals are immediately euthanized with CO2. If no toxic effects are observed, mice are euthanized with CO2 at the end of […]
# After infection, parasitemia was monitored daily by thick and thin blood films as previously described in Joyner et al. 2019 (86). […]
# dosing. […] The experiment was repeated twice, and each concentration was assessed in […]
# Data analysis The percentage of parasitized erythrocytes was determined by enumerating the number of Hoechst positive events out of the total erythrocytes after excluding non-single cells by forward and side scatter. The percent survival was calculated by averaging the parasitemia in the triplicates for each condition and then dividing by the parasitemia observed in the wells that did not receive drug treatment. The IC50 was then calculated using GraphPad Prism 9 (GraphPad […]
structure (smiles),measurement,setting,value
[C-]#[N+][C@]1(C)CC[C@H]2[C@@H]([C@@H](C(C)C)CC[C@]2(C)[N+]#[C-])[C@H]1O [MED6-189],stability to aqueous acidic conditions (hydrolysis to formamides),[1],reasonable stability
same,IC50,[2],< 50 nM
same,IC50,[3],136 ± 56 nM
